target: T1, ΔF508-CFTR (Homo sapiens, UniProt P13569, DEL508-508); experiment: hBE equivalent current (Ieq) assay; assay type: cell-based; settings: AUC of equivalent chloride current, % of CFTR amplifier (Compound A)+VX-809 (3 uM); compound at 10 uM and Compound A at 3 uM; primary lung epithelial cells homozygous ΔF508, 24 hours treatment
T1 construct: Primary lung epithelial cells homozygous for the Cystic Fibrosis-causing ΔF508 mutation were differentiated; endogenous in cells; host or cells: primary lung (bronchial) epithelial cells (hBE) homozygous for ΔF508, differentiated at an air-liquid interface
T1 sequence (P13569 with tags, fused parts or gaps DEL508-508): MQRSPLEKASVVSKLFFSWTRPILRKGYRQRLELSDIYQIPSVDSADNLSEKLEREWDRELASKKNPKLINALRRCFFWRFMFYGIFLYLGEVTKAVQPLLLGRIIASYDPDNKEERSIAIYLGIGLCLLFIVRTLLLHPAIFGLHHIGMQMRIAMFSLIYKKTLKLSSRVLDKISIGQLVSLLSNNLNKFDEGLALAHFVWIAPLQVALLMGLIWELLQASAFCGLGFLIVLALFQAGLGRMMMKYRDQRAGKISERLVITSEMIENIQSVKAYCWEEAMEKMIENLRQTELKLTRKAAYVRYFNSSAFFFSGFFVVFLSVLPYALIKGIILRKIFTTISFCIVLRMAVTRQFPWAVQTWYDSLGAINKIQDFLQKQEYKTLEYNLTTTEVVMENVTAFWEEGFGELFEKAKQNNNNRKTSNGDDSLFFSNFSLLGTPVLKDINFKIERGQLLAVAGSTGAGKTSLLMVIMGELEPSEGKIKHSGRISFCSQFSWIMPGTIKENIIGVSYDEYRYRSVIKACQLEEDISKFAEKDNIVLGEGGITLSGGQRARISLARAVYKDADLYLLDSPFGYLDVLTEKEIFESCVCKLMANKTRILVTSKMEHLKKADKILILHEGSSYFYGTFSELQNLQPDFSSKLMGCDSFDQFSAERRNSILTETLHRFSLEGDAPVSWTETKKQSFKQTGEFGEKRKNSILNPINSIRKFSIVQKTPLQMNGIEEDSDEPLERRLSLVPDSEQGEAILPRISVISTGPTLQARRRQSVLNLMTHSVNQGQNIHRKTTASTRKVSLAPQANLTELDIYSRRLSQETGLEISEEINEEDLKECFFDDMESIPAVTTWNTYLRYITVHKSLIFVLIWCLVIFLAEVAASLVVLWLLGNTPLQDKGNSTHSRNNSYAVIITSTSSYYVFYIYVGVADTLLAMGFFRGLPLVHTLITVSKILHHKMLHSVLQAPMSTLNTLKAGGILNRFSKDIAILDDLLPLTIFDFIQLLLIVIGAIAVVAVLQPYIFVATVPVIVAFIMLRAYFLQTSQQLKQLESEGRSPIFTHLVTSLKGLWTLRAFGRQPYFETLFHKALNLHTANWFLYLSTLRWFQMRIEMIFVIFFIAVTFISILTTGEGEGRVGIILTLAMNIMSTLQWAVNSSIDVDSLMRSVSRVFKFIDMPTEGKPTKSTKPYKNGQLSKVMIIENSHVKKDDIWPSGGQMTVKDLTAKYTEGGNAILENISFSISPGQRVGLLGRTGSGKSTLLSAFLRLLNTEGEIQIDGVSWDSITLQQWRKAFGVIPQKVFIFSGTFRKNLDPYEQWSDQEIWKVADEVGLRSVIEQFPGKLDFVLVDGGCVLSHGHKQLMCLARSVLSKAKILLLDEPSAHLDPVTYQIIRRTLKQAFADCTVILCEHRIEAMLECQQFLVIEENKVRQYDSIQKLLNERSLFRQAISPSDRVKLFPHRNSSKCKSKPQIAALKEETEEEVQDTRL
Procedure: ii. hBE Equivalent Current (Ieq) Assay
Primary lung epithelial cells homozygous for the Cystic Fibrosis-causing ΔF508 mutation were differentiated for a minimum of 4 weeks in an air-liquid interface on Costar 24 well HTS filter plates prior to the equivalent current (Ieq) measurements. Cells were apically mucus-washed for 30 minutes 24 h prior to treatment with compounds. The basolateral media was removed and replaced with media containing the compound of interest diluted to its final concentration from DMSO stocks. Treated cells were incubated at 37° C. and 5% CO2 for 24 hours. At the end of the treatment period, the media was changed to the Ieq experimental solution for 2 hours before the experiment and plates are maintained in a CO2-free incubator during this period. The plates containing the cells were then placed in pre-warmed heating blocks at 36° C.±0.5 for 15 minutes before measurements are taken. The transepithelial voltage (VT) and conductance (Gr) were measured using a custom 24 channel current clamp (TECC-24) with 24 well electrode manifold. The Ieq assay measurements were made following additions with standardized time periods: • 1. The baseline VT and Gr values were measured for approximately 20 minutes. • 2. Benzamil was added to block ENaC for 15 minutes. • 3. Forskolin plus VX-770 were added to maximally activate ΔF508-CFTR for 27 minutes. • 4. Bumetanide was added to inhibit the NaK2Cl cotransporter and shut-off secretion of chloride.
The activity data captured was the area under the curve (AUC) for the traces of the equivalent chloride current. The AUC was collected from the time of the forskolin/VX-770 addition until the inhibition by bumetanide addition. Correction in response to compound treatment was scored as the increase in the AUC for compound-treated samples over that of vehicle-treated samples.
(+ indicates activity <100% of a CFTR amplifier (Compound A)+VX-809 (3 uM) with compound at 10 uM and Compound A at 3 uM; ++ indicates activity ≥100% and <200% of CFTR amplifier+VX-809 (3 uM) with compound at 10 uM and Compound A at 3 uM; +++ indicates activity >200% of CFTR amplifier+VX-809 (3 uM) with compound at 10 uM and Compound A at 3 uM.

| SMILES | Activity |
| --- | --- |
| Cc1c(-c2cc(C(=O)NS(C)(=O)=O)c3c(O[C@H](C)c4ccccc4)ccc(C)c3n2)sc2ccccc12 [Compound 1] | +++ (activity >200% of CFTR amplifier+VX-809 (3 uM) with compound at 10 uM and Compound A at 3 uM) |
| Cc1c(-c2cc(C(=O)NS(C)(=O)=O)c3c(O[C@H](C)c4ccccc4)ccc(C)c3n2)oc2ccccc12 [Compound 2] | +++ (activity >200% of CFTR amplifier+VX-809 (3 uM) with compound at 10 uM and Compound A at 3 uM) |
| Cc1c(-c2cc(C(=O)NS(=O)(=O)C3CC3)c3c(O[C@H](C)c4ccccc4)ccc(C)c3n2)sc2ccccc12 [Compound 3] | ++ (activity ≥100% and <200% of CFTR amplifier+VX-809 (3 uM) with compound at 10 uM and Compound A at 3 uM) |
| Cc1c(-c2cc(C(=O)NS(=O)(=O)C3CC3)c3c(O[C@H](C)c4ccccc4)ccc(C)c3n2)oc2ccccc12 [Compound 4] | ++ (activity ≥100% and <200% of CFTR amplifier+VX-809 (3 uM) with compound at 10 uM and Compound A at 3 uM) |
| Cc1c(-c2cc(C(=O)NS(=O)(=O)N3CCOCC3)c3c(O[C@H](C)c4ccccc4)ccc(C)c3n2)sc2ccccc12 [Compound 7] | +++ (activity >200% of CFTR amplifier+VX-809 (3 uM) with compound at 10 uM and Compound A at 3 uM) |
| Cc1c(-c2cc(C(=O)NS(=O)(=O)N3CCOCC3)c3c(O[C@H](C)c4ccccc4)ccc(C)c3n2)oc2ccccc12 [Compound 8] | + (activity <100% of a CFTR amplifier (Compound A)+VX-809 (3 uM) with compound at 10 uM and Compound A at 3 uM) |
| Cc1c(-c2cc(C(=O)NS(=O)(=O)c3ccccc3)c3c(O[C@H](C)c4ccccc4)ccc(C)c3n2)sc2ccccc12 [Compound 9] | ++ (activity ≥100% and <200% of CFTR amplifier+VX-809 (3 uM) with compound at 10 uM and Compound A at 3 uM) |
| Cc1c(-c2cc(C(=O)NS(=O)(=O)c3ccccc3)c3c(O[C@H](C)c4ccccc4)ccc(C)c3n2)oc2ccccc12 [Compound 10] | ++ (activity ≥100% and <200% of CFTR amplifier+VX-809 (3 uM) with compound at 10 uM and Compound A at 3 uM) |
| Cc1c(-c2cc(C(=O)NS(=O)(=O)c3cccc(N)n3)c3c(O[C@H](C)c4ccccc4)ccc(C)c3n2)sc2ccccc12 [Compound 11] | ++ (activity ≥100% and <200% of CFTR amplifier+VX-809 (3 uM) with compound at 10 uM and Compound A at 3 uM) |
| Cc1c(-c2cc(C(=O)NS(=O)(=O)c3cccc(N)n3)c3c(O[C@H](C)c4ccccc4)ccc(C)c3n2)oc2ccccc12 [Compound 12] | ++ (activity ≥100% and <200% of CFTR amplifier+VX-809 (3 uM) with compound at 10 uM and Compound A at 3 uM) |
| Cc1c(-c2cc(C(=O)NS(=O)(=O)c3cccc(N)c3)c3c(O[C@H](C)c4ccccc4)ccc(C)c3n2)sc2ccccc12 [Compound 13] | +++ (activity >200% of CFTR amplifier+VX-809 (3 uM) with compound at 10 uM and Compound A at 3 uM) |
| Cc1c(-c2cc(C(=O)NS(=O)(=O)c3cccc(N)c3)c3c(O[C@H](C)c4ccccc4)ccc(C)c3n2)oc2ccccc12 [Compound 14] | +++ (activity >200% of CFTR amplifier+VX-809 (3 uM) with compound at 10 uM and Compound A at 3 uM) |
| Cc1c(-c2cc(C(=O)NS(=O)(=O)N3CC[C@H](N)C3)c3c(O[C@H](C)c4ccccc4)ccc(C)c3n2)sc2ccccc12 [Compound 15] | ++ (activity ≥100% and <200% of CFTR amplifier+VX-809 (3 uM) with compound at 10 uM and Compound A at 3 uM) |
| Cc1c(-c2cc(C(=O)NS(=O)(=O)N3CC[C@H](N)C3)c3c(O[C@H](C)c4ccccc4)ccc(C)c3n2)oc2ccccc12 [Compound 16] | +++ (activity >200% of CFTR amplifier+VX-809 (3 uM) with compound at 10 uM and Compound A at 3 uM) |
| Cc1c(-c2cc(C(=O)NS(=O)(=O)c3cnc(N)s3)c3c(O[C@H](C)c4ccccc4)ccc(C)c3n2)sc2ccccc12 [Compound 17] | +++ (activity >200% of CFTR amplifier+VX-809 (3 uM) with compound at 10 uM and Compound A at 3 uM) |
| Cc1c(-c2cc(C(=O)NS(=O)(=O)c3cnc(N)s3)c3c(O[C@H](C)c4ccccc4)ccc(C)c3n2)oc2ccccc12 [Compound 18] | + (activity <100% of a CFTR amplifier (Compound A)+VX-809 (3 uM) with compound at 10 uM and Compound A at 3 uM) |
